Laboratory results: patent US20250325572A1, “TREATMENTS FOR PAIN” (Sevenless Therapeutics Limited, priority 2022, published 2025)

Legend:
[1] = system: NGF stimulated pERK1/2 activation in PC-12 cells; assay: Tanezumab / SOS1 inhibitor combination in the NGF stimulated pERK1/2 PC-12 assay; assay type: cell-based, rat
Experimental: The combined inhibitory effect of a selective, small molecule SOS1 inhibitor and known antibody based NGF inhibitor, Anti-NGF was monitored via an HTRF readout measuring phosphorylation of ERK1/2 by NGF activation. All assays were performed in rat adrenal PC-12 cells (Merck) that had been serum-starved for a period of 24 hours in RPMI-1640 growth medium (Gibco) supplemented with 1% heat-inactivated horse serum (Merck), 0.5% heat-inactivated fetal bovine serum (FBS), 1% penicillin-streptomycin and 2 mM L-Glutamine unless specified otherwise. Reagents from the HTRF commercial kit (Cisbio) were prepared according to the manufacturer's instructions.
PC-12 cells were isolated from routine cellular culture and plated at an appropriate cell density (typically 25,000 cells per well) in 384-well plates for 24 hours under serum-starved conditions. Working preparations of varying Anti-NGF (Abcam) concentrations and a fixed NGF concentration were prepared in serum-starved media and pre-incubated for 30 minutes (37° C./5% CO2). […] A 2-hour incubation at room temperature was performed prior to fluorescence signal being measured in a microplate reader (PHERAstar FSX, BMG Labtech).
Percentage inhibition values were calculated per compound concentration by normalising the sample data to the high and low controls used within each plate (+/−250 ng/mL NGF respectively). […] Response data were then plotted against the molar logarithm for each SOS1 inhibitor compound concentration together with the determined fit results for display purposes. […] The mean percentage inhibition value calculated for both the top and bottom concentration of SOS1 inhibitor compound tested per Anti-NGF:NGF combination was extracted and compared in tabular form across the different Anti-NGF:NGF combinations tested.
The ability of an NGF inhibitor Tanezumab in combination with a SOS1 inhibitor to treat pain was measured in the Inhibition of Nerve Growth Factor (NGF) stimulated phospho-Extracellular Regulated Kinase 1 and 2 (pERK1/2) activation in the PC-12 cell line assay.

[2] = Analgesic effect of SOS1 inhibitor combined with Tanezumab; assay type: in vivo
[3] = system: knee osteoarthritis pain model; details: rats, 10 mg/kg; cited from earlier work

In the case of “Tanezumab: an example of an anti-NGF antibody”, the efficacy ([1]; Tanezumab 50 nM in combination with SOS1 inhibitor 500 nM) is reported as roughly 96%, the efficacy ([1]; Tanezumab alone, 50 nM) is reported as 90% and the efficacy ([1]; tanezumab alone, 200 nM) is reported as 100%. The analgesic effect ([2]; 0.3 mg/kg Tanezumab in combination with low doses of a SOS1 inhibitor) was “significant analgesic effect”, the “increase in analgesia versus dose” value ([2]; fixed dose SOS1 inhibitor, varied antibody dose) was “efficacy is dose related” and the efficacy [3] was “shows efficacy”.
